Patent US20260021119A1, “TETRACYCLINE DERIVATIVES” (ICM (INSTITUT DU CERVEAU ET DE LA MOELLE ÉPINIÈRE), priority 2022, published 2026)

Experiments:
[1] = test system: microglia cells (TNF α release under LPS); test: Anti-inflammatory effect in microglia, TNF α release inhibition under LPS exposure; assay type: cell-based; conditions: for Anti inflammatory effects (IC 50 in μM): TNF α release inhibition under LPS exposure, determined graphically
Description: Microglia is in charge of the protection of the neurons. However, under stress conditions, microglia cells are responsible of inflammatory phenomena, leading eventually to the death of the neurons. The anti-inflammatory effects of 5 μM and 20 μM of compound of formula (B) presented in Example 1, of 5 μM and 20 μM of compound of formula (Ia) according to the present invention and of 50 μM of doxycycline (DOX) were evaluated, compared to the effect of 2.5 μM of dexamethasone (DEX). Microglia is in charge of the protection of the neurons. However, under stress conditions, microglia cells are responsible of inflammatory phenomena, leading eventually to the death of the neurons. The anti-inflammatory effects of 10 μM and 20 μM of compound of formula (C) (“10 μM (C)” and “20 μM (C)”) and of 10 μM and 20 μM of compound of formula (Ia) according to the present invention (“10 μM (Ia)” and “20 μM (Ia)”) were evaluated, compared to the effect of 2.5 μM of dexamethasone (“DEX”). The properties of tetracycline derivatives, including the compound of formula (Ia) according to the present invention, were compared regarding the neuroprotection, anti-inflammatory effects, anti-aggregant activity, and antibiotic activity. The properties were evaluated as described herein above. EC50s, IC50s determined graphically, *Rescue of dopamine neurons from spontaneous oxidative stress; ** TNF α release inhibition under LPS exposure, ^#Weak antibiotic activity on only 1 of the 3 bacterial strains (i.e. S aureus). ##Strong antibiotic activity on all 3 bacterial strains. ^###Significant antibiotic activity on two bacterial strains.

[2] = test system: p-tau (phosphorylated tau protein at Ser202, Thr205 residues); test: p-tau (AT8) expression in cultured cortical neurons under oxidative stress; assay type: cell-based, mouse; design: key to Reduction of the % of p-tau+ somas: a favorable response, synonymous with a decrease in the number of p-tau+ cell bodies; ++: a favorable response, synonymous with a decrease in the number of p-tau+ cell bodies; +++=reference level; an unfavorable response is represented by a sign “−”, synonymous with an elevation of the number of p-tau+ cell bodies; overexpression of p-tau in cortical cell bodies: dose or concentration left out as unconfirmed
Description: A culture model of cortical neurons from mouse embryonic brain was used, in which neuronal cells were subjected to a maturation step until day in vitro (div) 7, before being gradually exposed to phenol red formulated DMEM/Nutrient mixture F12 Ham supplemented with 20 μg/mL of insulin, and 2 μM of the NMDA receptor blocker MK-801 (DF12i).
Precisely, after 4 days of exposure to DF12i, between 10-15% of surviving neurons show a very strong AT8 immunosignal in their somas while only 1 to 1.5% of neuronal cell bodies are found immunopositive under conditions where oxidative stress is repressed by treatment with bovine apotransferrin (APO; 100 µg/mL, Sigma Aldrich), a glycoprotein with iron chelating properties. Likewise, overexpression of p-tau in cortical cell bodies is reduced by the two non-antibiotic tetracyclines compound of formula (C) ([…]) and compound of formula (Ib) ([…]): see the following Table: […]

[3] = molecular target: alpha-synuclein (Homo sapiens, UniProt P37840); test: alpha-synuclein fibrils by transmission electron microscopy (TEM); assay type: biochemical; conditions: 20 μM compound; vs alpha-synuclein alone
Description: By using transmission electron microscopy (TEM) we studied the alpha-synuclein aggregation in the presence of 20 μM of the compound of formula (Ia) in the same condition described above. For the samples mounting, 5 μL of a 7 μM alpha-synuclein solution were adsorbed onto a formvar carbon film coated copper grids (Electron Microscopy Sciences) and stained with uranyless.

[4] = test system: E. coli ATCC 25922; test: MIC, broth dilution (Example 3); assay type: cell-based; conditions: Escherichia coli, ATCC25922; 18 h at 37° C., MH broth
Description: (§1) Bacterial strains used in this study were: S. aureus (ATCC25923), E. coli (ATCC25922), E. faecalis (ATCC29212) and P. aeruginosa (PA01). Strains were maintained at −80° C. in 15% (v/v) glycerol for cryoprotection. Bacteria were routinely grown in Mueller-Hinton (MH) broth at 37° C.
(§2) The susceptibility of bacterial strains to antibiotics and compounds was determined in microplates using the standard broth dilution method in accordance with the recommendations of the Comité de 1′Antibiogramme de la Société Française de Microbiologie (CA-SFM). (Members of the SFM Antibiogram Committee, R. Int. J. Antimicrob. Agents 2003, 21, 364). Briefly, the Minimal Inhibitory Concentrations (MICs) were determined with an inoculum of 10^5 CFU in 200 μL of MH broth containing two-fold serial dilutions of each drug. […] To determine all MICs, the measurements were independently repeated in triplicate.
(§3) The compound of formula (Ia) according to the invention was tested against clinical isolates Gram-bacteria (P. aeruginosa, E. coli) and Gram+ bacteria (S. aureus, E. faecalis). Minimum inhibitory concentrations (MIC) were tentatively determined and compared to known antibiotic tetracyclines (doxycycline, demeclocycline, chlortetracycline) and to the compound of formula (B) disclosed in Example 1 of the present application. The test was reproduced twice and the average MIC were calculated.

[5] = test system: E. faecalis ATCC 29212; test: MIC, broth dilution (Example 3); assay type: cell-based; conditions: Enterococcus faecalis, ATCC29212; 18 h at 37° C., MH broth
Description: as §1, §2, §3

[6] = test system: P. aeruginosa PA01; test: MIC, broth dilution (Example 3); assay type: cell-based; conditions: Pseudomonas aeruginosa, 18 h at 37° C., MH broth
Description: as §1, §2, §3

[7] = test system: S. aureus ATCC 25923; test: MIC, broth dilution (Example 3); assay type: cell-based
Description: as §1, §2, §3

[8] = 10 μM and 20 μM, compared to dexamethasone 2.5 μM

Row | Anti inflammatory effects (IC 50 in μM) [1] | amount of alpha-synuclein fibril (TEM) [3] | MIC [4] [µM] | MIC [5] [µM] | MIC [6] [µM] | MIC ([7]; Staphylococcus aureus, ATCC25923, 18 h at 37° C., MH broth) [µM] | Compound | anti-inflammatory effect (LPS) [1, 8] | overexpression of p-tau in cortical cell bodies [2] | Reduction of the % of p-tau+ somas ([2]; compounds 3 μM, APO 100 μg/mL, mouse cortical cultures exposed div 7-11 to DF12i) | activity on S. aureus compared with compound of formula (B) [7] | anti-inflammatory effect (LPS) ([1]; 5 μM and 20 μM, superior to doxycycline 50 μM and compound of formula (B))
1 | no |  |  |  |  |  | NC(=O)C1=C(O)CC2CC3C(=C(O)C2C1=O)C(=O)c1c(O)ccc(Cl)c1[C@H]3O (stereo partly shown) [Compound of formula (C)] | unable to counteract the inflammatory process | reduced | +++ |  | 
2 | yes | clearly decreases | > 200 | > 200 | > 200 | > 200 | C[C@H]1c2cccc(O)c2C(=O)C2=C(O)C3C(=O)C(C(N)=O)=C(O)C[C@@H]3[C@@H](O)[C@@H]21 (stereo partly drawn) [Compound of formula (Ia), (4aS,5R,5aR,6R)-3,5,10,12-tetrahydroxy-6-methyl-1,11-dioxo-1,4,4a,5,5a,6,11,12a-octahydrotetracene-2-carboxamide] | counteracts inflammatory process |  |  | less active | counteracts inflammatory process
